Experimental data taken from patent US9375497B2, “[F-18]-labeled L-glutamic acid, [F-18]-labeled L-glutamine, derivatives thereof and use thereof and processes for their preparation” (BAYER SCHERING PHARMA AKTIENGESELLSCHAFT, priority 2006, dated 2016).

Key:
[1] = system: A549 (non-small-cell bronchial carcinoma) cells; test: Tumor cell uptake in A549 cells; assay type: cell-based, human; conditions: 250 kBq/well, compared to [^18F]FDG
Method: (§1) For the evaluation of the tumor cell uptake of [^18F]glutamic acid, cell uptake experiments were carried out in human A549 (non-small-cell bronchial carcinoma) and HT29 (colonic carcinoma) cells. The tumor cell uptake of the glutamic acid derivatives was compared to
(§2) [^18F]FDG (gold standard for oncological PET investigations).
FIG. 2: Comparison of the time-dependent tumor cell uptake of [^18F]-4-glutamic acid [20-35 μM] (on the left) and [F-18]FDG [2 μM] (on the right) in A549 cells. The cells were incubated with 250 kBq/well. For displacement experiments, L-glutamic acid (1 mM) or glucose (5 mM) was used (mean value±standard deviation, n=3).

[2] = system: HT29 (colonic carcinoma) cells; test: Tumor cell uptake in HT29 cells; assay type: cell-based, human; conditions: compared to [^18F]FDG
Method: as §1, §2

[3] = system: murine F9 teratocarcinoma model in NMRI nude mice; test: Tumor enrichment and tissue distribution, F9 teratocarcinoma model; conditions: for Tumor/tissue quotient, Liver: single i.v.
Method: (§3) For the evaluation of the tumor enrichment and the tissue distribution in experimental animals, [^18F]-4-glutamic acid was tested in a murine F9 teratocarcinoma model in NMRI nude mice and a murine B16F1 melanoma model in C57BI6 mice.
For this, 1×10^6 cells (F9) or 5×10^5 cells (B16F1) respectively were suspended in 100 μl of phosphate-buffered physiological saline solution and inoculated subcutaneously into the right, rear flank of the corresponding experimental animal species (NMRI for F9 and 057-BI6 for B16F1) (Berndorff et al. Clin. Cancer Res. 2005, 11, 2005). […] [^18F]-4-Glutamic acid (370 kBq, in 100 μl of physiological saline solution) was administered intravenously to the tail vein. […]

[4] = system: murine B16F1 melanoma model in C57BI6 mice; test: Tumor enrichment and tissue distribution, B16F1 melanoma model; conditions: for Tumor/tissue quotient, Ovary: single i.v.; for Tissue uptake, Brain: single i.v. 111 kBq
Method: as §3
For this, 1×10^6 cells (F9) or 5×10^5 cells (B16F1) respectively were suspended in 100 μl of phosphate-buffered physiological saline solution and inoculated subcutaneously into the right, rear flank of the corresponding experimental animal species (NMRI for F9 and 057-BI6 for B16F1) (Berndorff et al. Clin. Cancer Res. 2005, 11, 2005). […] [^18F]-4-Glutamic acid (370 kBq, in 100 μl of physiological saline solution) was administered intravenously to the tail vein. After 15; 60 and 120 min in each case, the animals were killed, organ and tumor removed, weighed and measured for radioactive content.

## NC(=O)C([18F])CC(N)C(=O)O (centres unmarked) [[^18F]-4-glutamine, 2-amino-4-[F-18]fluoroglutamine]
[1]
  tumor cell uptake: Analogous uptake results
[2]
  tumor cell uptake: Analogous uptake results

## NC(CC(OCC[18F])C(=O)O)C(=O)O (centres unmarked) [2-amino-4-(2-[F-18]fluoroethoxy)pentanedicarboxylic acid]
[1]
  tumor cell uptake: Analogous uptake results
[2]
  tumor cell uptake: Analogous uptake results

## N[C@@H](CC[14C](=O)O)C(=O)O [[^14C]5-glutamic acid, reference compound]
[3]; 1.0 h (times as Table 5)
  Tumor/tissue quotient, Liver: 1.31
[3]; 4.0 h (times as Table 5)
  Tumor/tissue quotient, Liver: 1.09
[3]; F9 teratocarcinoma, 1 h after intravenous administration
  tumor enrichment: 0.98 % ID/g
[3]; F9 teratocarcinoma, similarly early time (30 min)
  maximal tumor enrichment: 0.81 % ID/g
[4]; 0.25 h (times as Table 7)
  Tumor/tissue quotient, Ovary: 0.47
[4]; 0.25 h
  Tissue uptake, Brain: 0.22 % dose/g
[4]; 1.0 h (times as Table 7)
  Tumor/tissue quotient, Ovary: 1.01
[4]; 1.0 h
  Tissue uptake, Brain: 0.13 % dose/g
[4]; 2.0 h
  Tissue uptake, Brain: 0.09 % dose/g
[4]; B16F1 melanoma, 1 h after intravenous administration
  tumor enrichment: 1.03 % ID/g
[4]; B16F1 melanoma, "at the same time"
  maximal tumor enrichment: 1.23

## NC(CC(CCC[18F])C(=O)O)C(=O)O (centres unmarked) [2-amino-4-(3-[F-18]fluoropropyl)pentanedicarboxylic acid]
[1]
  tumor cell uptake: Analogous uptake results
[2]
  tumor cell uptake: Analogous uptake results
